Data from PMC10447463, “Data-mining unveils structure–property–activity correlation of viral infectivity enhancing self-assembling peptides” (Nature Communications, 2023).
Where two headings read alike, the source gives them in different places.

Assays:
[1] = type: physicochemical; parameters: key to Fibril / Fibril Formation / TEM 2cat / Fibril: 1 = fibrils present; 0 non-fibrillar structures; settings: for Fibril / Fibril Formation: 1 mg/mL, uranyl acetate stain, qualitative
[2] = type: physicochemical; settings: for ThT Cat. / ThT-Fluorescence (categorical): ThT-active if fluorescence at least twice the control; for Rel. ThT: n-fold ThT fluorescence vs control (PBS, 10% DMSO), 4 µL 1 mg/mL fibrils + 20 µL 50 µM ThT, 15 min RT, ex 440 / em 488 nm, triplicate
Procedure, shortened: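 Preformed peptide fibrils (1 mg/mL) mixed with 50 µM ThT in PBS, 15 min at RT, fluorescence ex 440/em 488 nm versus PBS blank, triplicates. Zeta potential: peptides at 1 mg/mL in PBS pH 7.4, aged 1 d at RT, diluted in 1 mM KCl, Smoluchowski from electrophoretic mobility.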

[3] = Turbidity, derived count rate of scattered light; type: physicochemical; settings: for Count Rate: derived count rate of scattered light (turbidity); for Log10 Count Rate: turbidity, derived count rate of scattered light, data of Figure 2D
[4] = Fig S10 panel D, fibril category by TEM
[5] = TEM, 1 = fibrils present, 0 = non-fibrillar
[6] = TEM, 1 = fibrils present, 0 = non-fibrillar structures
[7] = category: fibrils present or non-fibrillar
[8] = ThT fluorescence category, 1 if Rel. ThT >2
[9] = FigS12 panel A, fibril category by TEM

Substance	TEM 2cat [1, 4]	Fibril ([1]; Fig S10 panel E)	Fibril / Fibril Formation ([1]; TEM)	Fibril [1, 5]	Fibril [1, 6]	TEM 2cat [1, 7]	Tht category (> 2 to blank = +) ([2]; Fig S10 panel D)	ThT Cat. ([2]; Fig S10 panel E)	ThT Cat, ([2]; ThT category, 1 if Rel. ThT >2)	ThT Cat. [2, 8]	ThT Cat. / ThT-Fluorescence (categorical) [2]	Count Rate [3]	Log10 Count Rate [3]	TEM 2cat [1, 9]	Fibril ([1]; FigS12 panel B, TEM)	Tht category (> 2 to blank = +) ([2]; FigS12 panel A)	ThT Cat, ([2]; FigS12 panel B)	TEM 2cat ([1]; Fig S10 panel D)	ThT Cat. ([2]; ThT category, 1 if Rel. ThT >2)	further results
CEFEFQFNMWQ	1	1	1	1	1	1	1 (ThT. Cat is 1, if Rel. ThT >2)	1 (ThT. Cat is 1, if Rel. ThT >2)	1 (ThT. Cat is 1, if Rel. ThT >2)	1 (ThT. Cat is 1, if Rel. ThT >2)	1 (ThT. Cat is 1, if Rel. ThT >2)	186.3	2.27							
CEIEIQINM	1	1	1	1	1		1 (ThT. Cat is 1, if Rel. ThT >2)	1 (ThT. Cat is 1, if Rel. ThT >2)	1 (ThT. Cat is 1, if Rel. ThT >2)	1 (ThT. Cat is 1, if Rel. ThT >2)	1 (ThT. Cat is 1, if Rel. ThT >2)	58.43	1.767	1	1	1 (ThT. Cat is 1, if Rel. ThT >2)	1 (ThT. Cat is 1, if Rel. ThT >2)			
CEIEIQINMWQ	1	1	1	1	1	1	1 (ThT. Cat is 1, if Rel. ThT >2)	1 (ThT. Cat is 1, if Rel. ThT >2)	1 (ThT. Cat is 1, if Rel. ThT >2)	1 (ThT. Cat is 1, if Rel. ThT >2)	1 (ThT. Cat is 1, if Rel. ThT >2)	1570	3.196							
CKAKAQA	0	0	0	0	0		0 (ThT-inactive (N-Fold <2))	0 (ThT-inactive (N-Fold <2))	0 (ThT-inactive (N-Fold <2))	0 (ThT-inactive (N-Fold <2))	0 (ThT-inactive (N-Fold <2))	362.7	2.56	0	0	0 (ThT-inactive (N-Fold <2))	0 (ThT-inactive (N-Fold <2))			
CKAKAQANM		0	0	0	0		0 (ThT-inactive (N-Fold <2))	0 (ThT-inactive (N-Fold <2))	0 (ThT-inactive (N-Fold <2))		0 (ThT-inactive (N-Fold <2))	207.3	2.317	0	0	0 (ThT-inactive (N-Fold <2))	0 (ThT-inactive (N-Fold <2))	0	0 (ThT-inactive (N-Fold <2))	Rel. ThT [2]: 1.2
CKAKAQANMWQ		0	0	0	0		0 (ThT-inactive (N-Fold <2))	0 (ThT-inactive (N-Fold <2))	0 (ThT-inactive (N-Fold <2))		0 (ThT-inactive (N-Fold <2))	8.967	0.9526	0	0	0 (ThT-inactive (N-Fold <2))	0 (ThT-inactive (N-Fold <2))	0	0 (ThT-inactive (N-Fold <2))	Rel. ThT [2]: 1.9
CKFKFQFW	1	1	1	1	1	1	0 (ThT-inactive (N-Fold <2))	0 (ThT-inactive (N-Fold <2))	0 (ThT-inactive (N-Fold <2))		0 (ThT-inactive (N-Fold <2))	29210.5	4.466						0 (ThT-inactive (N-Fold <2))	
CKFKQFF		0	0	0	0		0 (ThT-inactive (N-Fold <2))	0 (ThT-inactive (N-Fold <2))	0 (ThT-inactive (N-Fold <2))		0 (ThT-inactive (N-Fold <2))	2.567	0.4094	0	0	0 (ThT-inactive (N-Fold <2))	0 (ThT-inactive (N-Fold <2))	0	0 (ThT-inactive (N-Fold <2))	
CKFKQFFNM			1	1	1	1	1 (ThT. Cat is 1, if Rel. ThT >2)		1 (ThT. Cat is 1, if Rel. ThT >2)		1 (ThT. Cat is 1, if Rel. ThT >2)	27264.3	4.436					1	1 (ThT. Cat is 1, if Rel. ThT >2)	
HHHHKIKIKIKIWWWW [TM4]																				TEM: 1= fibrils, 0= aggregates (micelle), 0.5 = aggregates and fibrils, -1 = nothing obersved, STD prep ([1]; STD prep): 0.5; Tht rel to blank (42.1851851851852) ([2]; ThT fluorescence relative to blank, blank = 42.1851851851852): 4.025; Tht category (> 1.5 to blank = +) ([2]; category 1/0): 1 (ThT. Cat is 1, if Rel. ThT >2)
